Structures can show the parent of a compound that is named as a salt.
tested on: TNFα levels in LPS stimulated whole blood; assay: LPS Stimulated Whole Blood Measuring TNFα Levels Assay; format: cell-based; settings: LPS 200 ng/ml, 24 hours, read-out: pIC50 (TNFα levels) (converted)
Procedure: LPS Stimulated Whole Blood Measuring TNFα Levels Assay
(§1) Activation of monocytic cells by agonists of toll-like receptors such as bacterial lipopolysaccharide (LPS) results in production of key inflammatory mediators including TNFα. Such pathways are widely considered to be central to the pathophysiology of a range of auto-immune and inflammatory disorders.
(§2) Compounds to be tested are diluted to give a range of appropriate concentrations and 1 ul of the dilution stocks is added to wells of a 96 plate. Following addition of whole blood (130 ul) the plates are incubated at 37 degrees (5% CO2) for 30 min before the addition of 10 ul of 2.8 ug/ml LPS, diluted in complete RPMI 1640 (final concentration=200 ng/ml), to give a total volume of 140 ul per well. After further incubation for 24 hours at 37 degrees, 140 ul of PBS are added to each well. The plates are sealed, shaken for 10 minutes and then centrifuged (2500 rpm×10 min). 100 ul of the supernatant are removed and TNFα levels assayed by immunoassay (typically by MesoScale Discovery technology) either immediately or following storage at −20 degrees. Dose response curves for each compound was generated from the data and an IC50 value was calculated.

SMILES	IC50
CCC[C@@H]1C[C@H](Nc2ccc(C)cc2)c2cc(-c3ccc(CN4CCCCC4)cc3)ccc2N1C(C)=O [Example 189]	≤ 10 µM
CC(=O)N1c2ccc(-c3ccc(CN4CCCCC4)cc3)cc2[C@@H](Nc2ccccn2)C[C@H]1C (racemic) [Example 133, (cis)-1-Acetyl-2-methyl-6-[4-(1-pipendinylmethyl)phenyl]-N-2-pyridinyl-1,2,3,4-tetrahydro-4-quinolinamine formate salt]	≤ 10 µM
CC(=O)N1c2ccc(-c3ccc(CN4CCCCC4)cc3)cc2[C@@H](Nc2ccncc2)C[C@H]1C (racemic) [Example 138, (cis)-1-Acetyl-2-methyl-6-[4-(1-piperidinylmethyl)phenyl]-N-4-pyridinyl-1,2,3,4-tetrahydro-4-quinolinamine trifluoroacetate]	≤ 10 µM
CC(=O)N1c2ccc(-c3ccc(CN4CCCCC4)cc3)cc2[C@@H](Nc2ccc(Cl)cn2)C[C@H]1C (racemic) [Example 136, (cis)-1-Acetyl-N-(5-chloro-2-pyridinyl)-2-methyl-6-[4-(1-piperidinylmethyl)phenyl]-1,2,3,4-tetrahydro-4-quinolinamine formate salt]	≤ 10 µM
CNCc1ccc(-c2ccc3c(c2)[C@H](Nc2ccc(F)cn2)C[C@H](C)N3C(C)=O)cc1 [Example 157, (2S,4R)-1-Acetyl-N-(5-fluoro-2-pyridinyl)-2-methyl-6-{4-[(methylamino)methyl]phenyl}-1,2,3,4-tetrahydro-4-quinolinamine hydrochloride]	≤ 10 µM
CC[C@@H]1C[C@H](Nc2ccccc2)c2cc(-c3ccc(C(=O)O)cc3)ccc2N1C(C)=O (racemic) [Example 162, 4-[(cis)-1-Acetyl-2-ethyl-4-(phenylamino)-1,2,3,4-tetrahydro-6-quinolinyl]benzoic acid]	≤ 10 µM
CC(=O)N1c2ccc(-c3ccc(CN4CCCCC4)cc3)cc2[C@@H](Nc2ccc(C)cn2)C[C@H]1C (racemic) [Example 135, (cis)-1-Acetyl-2-methyl-N-(5-methyl-2-pyridinyl)-6-[4-(1-piperidinylmethyl)phenyl]-1,2,3,4-tetrahydro-4-quinolinamine formate salt]	≤ 10 µM

tested on: LPS induced IL-6 secretion from whole blood; assay: Measurement of LPS Induced IL-6 Secretion from Whole Blood; format: cell-based; settings: LPS 200 ng/ml, 24 hours, read-out: pIC50 (IL-6 levels) (converted)
Procedure: Measurement of LPS Induced IL-6 Secretion from Whole Blood
as §1, with “IL-6.” for “TNFα.”
as §2, with “concentrations of which” for “concentrations and”, “the diluted” for “the dilution”, “to” for “to wells of”, “96 well” for “96”, “and IL-6” for “and TNFα”, “degrees. Concentration” for “degrees. Dose”

SMILES	IC50
CNCCn1cc(-c2ccc3c(c2)[C@H](Nc2ncccn2)C[C@H](C)N3C(C)=O)cn1 [Example 153, (2S,4R)-1-Acetyl-2-methyl-6-{1-[2-(methylamino)ethyl]-1H-pyrazol-4-yl}-N-2-pyrimidinyl-1,2,3,4-tetrahydro-4-quinolinamine hydrochloride]	≤ 10 µM
CNCCn1cc(-c2ccc3c(c2)[C@H](Nc2ncccc2F)C[C@H](C)N3C(C)=O)cn1 [Example 150, (2S,4R)-1-Acetyl-N-(3-fluoro-2-pyridinyl)-2-methyl-6-{1-[2-(methylamino)ethyl]-1H-pyrazol-4-yl}-1,2,3,4-tetrahydro-4-quinolinamine hydrochloride]	≤ 10 µM
CNCCn1cc(-c2ccc3c(c2)[C@H](Nc2ccc(F)cn2)C[C@H](C)N3C(C)=O)cn1 [Example 154, (2S,4R)-1-Acetyl-N-(5-fluoro-2-pyridinyl)-2-methyl-6-{1-[2-(methylamino)ethyl]-1H-pyrazol-4-yl}-1,2,3,4-tetrahydro-4-quinolinamine hydrochloride]	≤ 10 µM
CC(=O)N1c2ccc(-c3ccc(C(=O)O)cc3)cc2[C@H](Nc2ccc(C)cn2)C[C@@H]1C [Example 126, 4-{(2S,4R)-1-Acetyl-2-methyl-4-[(5-methyl-2-pyridinyl)amino]-1,2,3,4-tetrahydro-6-quinolinyl}benzoic acid]	> 10 µM
CNCCn1cc(-c2ccc3c(c2)[C@H](Nc2ccc(C)cn2)C[C@H](C)N3C(C)=O)cn1 [Example 155, (2S,4R)-1-Acetyl-2-methyl-6-{1-[2-(methylamino)ethyl]-1H-pyrazol-4-yl}-N-(5-methyl-2-pyridinyl)-1,2,3,4-tetrahydro-4-quinolinamine hydrochloride]	≤ 10 µM
CNCCn1cc(-c2ccc3c(c2)[C@H](Nc2ncccc2C)C[C@H](C)N3C(C)=O)cn1 [Example 148, (2S,4R)-1-Acetyl-2-methyl-6-{1-[2-(methylamino)ethyl]-1H-pyrazol-4-yl}-N-(3-methyl-2-pyridinyl)-1,2,3,4-tetrahydro-4-quinolinamine hydrochloride]	≤ 10 µM
CNCCn1cc(-c2ccc3c(c2)[C@H](Nc2cccc(F)n2)C[C@H](C)N3C(C)=O)cn1 [Example 151, (2S,4R)-1-Acetyl-N-(6-fluoro-2-pyridinyl)-2-methyl-6-{1-[2-(methylamino)ethyl]-1H-pyrazol-4-yl}-1,2,3,4-tetrahydro-4-quinolinamine hydrochloride]	≤ 10 µM
CNCCn1cc(-c2ccc3c(c2)[C@H](Nc2cc(F)ccn2)C[C@H](C)N3C(C)=O)cn1 [Example 156, (2S,4R)-1-Acetyl-N-(4-fluoro-2-pyridinyl)-2-methyl-6-{1-[2-(methylamino)ethyl]-1H-pyrazol-4-yl}-1,2,3,4-tetrahydro-4-quinolinamine hydrochloride]	≤ 10 µM
CNCCn1cc(-c2ccc3c(c2)[C@H](Nc2cc(C)ccn2)C[C@H](C)N3C(C)=O)cn1 [Example 149, (2S,4R)-1-Acetyl-2-methyl-6-{1-[2-(methylamino)ethyl]-1H-pyrazol-4-yl}-N-(4-methyl-2-pyridinyl)-1,2,3,4-tetrahydro-4-quinolinamine hydrochloride]	≤ 10 µM
CC(=O)N1c2ccc(-n3cnc(C)c3)cc2[C@@H](Nc2ccc(C(=O)O)cn2)C[C@H]1C (racemic) [Example 143, 6-{[(cis)-1-acetyl-2-methyl-6-(4-methyl-1H-imidazol-1-yl)-1,2,3,4-tetrahydro-4-quinolinyl]amino}-3-pyridinecarboxylic acid]	> 10 µM
CC(=O)N1c2ccc(-n3cnc(C)c3)cc2[C@H](Nc2ccc(C)cn2)C[C@@H]1C [Example 190]	> 10 µM
CC(=O)N1c2ccc(-n3cnc(C)c3)cc2[C@@H](Nc2ccc(C#N)cn2)C[C@H]1C (racemic) [Example 159, 6-{[(cis)-1-acetyl-2-methyl-6-(4-methyl-1H-imidazol-1-yl)-1,2,3,4-tetrahydro-4-quinolinyl]amino}-3-pyridinecarbonitrile]	≤ 10 µM
CNCCn1cc(-c2ccc3c(c2)[C@H](Nc2cnccn2)C[C@H](C)N3C(C)=O)cn1 [Example 152, (2S,4R)-1-Acetyl-2-methyl-6-{1-[2-(methylamino)ethyl]-1H-pyrazol-4-yl}-N-2-pyrazinyl-1,2,3,4-tetrahydro-4-quinolinamine hydrochloride]	≤ 10 µM
CNCCn1cc(-c2ccc3c(c2)[C@H](Nc2cccc(C)n2)C[C@H](C)N3C(C)=O)cn1 [Example 147, (2S,4R)-1-Acetyl-2-methyl-6-{1-[2-(methylamino)ethyl]-1H-pyrazol-4-yl}-N-(6-methyl-2-pyridinyl)-1,2,3,4-tetrahydro-4-quinolinamine hydrochloride]	≤ 10 µM
CNCCn1cc(-c2ccc3c(c2)[C@H](Nc2ccncc2)C[C@H](C)N3C(C)=O)cn1 [Example 130, (2S,4R)-1-Acetyl-2-methyl-6-{1-[2-(methylamino)ethyl]-1H-pyrazol-4-yl}-N-4-pyridinyl-1,2,3,4-tetrahydro-4-quinolinamine formate salt]	> 10 µM

— patent US8580957B2, “Thetrahydroquinolines derivatives as bromodomain inhibitors” (GlaxoSmithKline LLC, priority 2009, dated 2013)
